Data: the supplement of paper PMC10307832

Key:
Assay in all cases: relative viability (nuclei count vs DMSO), 5 days (fraction); higher = more cells survive
[1] = compound: O=C(O)c1ccc2c(c1)nc(Nc1cccc(Cl)c1)c1ccncc12 [Silmitasertib] + CC(C)C[C@H](NC(=O)[C@H](Cc1ccccc1)NC(=O)c1cnccn1)B(O)O [Bortezomib] (partner 0.002 µM)
Outline: (§1)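 Lung cancer cell lines in 1536-well plates were dosed by pin tool the day after seeding, either with one drug alone or with a fixed anchor-drug dose plus five library-drug doses (not always all listed) in √10 steps. After 5 days, cells were fixed and their nuclei stained in one step (final 0.05% Triton X-100, 1% formaldehyde, 1 ug/ml Hoechst), then counted on 4× images. Relative viability is the nuclei count in treated wells divided by that in vehicle wells. Values are medians of duplicate plates.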

[2] = compound: O=C(O)c1ccc2c(c1)nc(Nc1cccc(Cl)c1)c1ccncc12 [Silmitasertib] + CC1(C)CCC(c2ccc(Cl)cc2)=C(CN2CCN(c3ccc(C(=O)NS(=O)(=O)c4ccc(N[C@H](CCN5CCOCC5)CSc5ccccc5)c(S(=O)(=O)C(F)(F)F)c4)cc3)CC2)C1 [Navitoclax] (partner 0.5 µM)
Outline: as §1

Silmitasertib + OSI-027 = compound: O=C(O)c1ccc2c(c1)nc(Nc1cccc(Cl)c1)c1ccncc12 [Silmitasertib] + COc1cccc2cc(-c3nc([C@H]4CC[C@H](C(=O)O)CC4)n4ncnc(N)c34)[nH]c12 [OSI-027] (partner 0.5 µM)
Outline: as §1

[3] = compound: O=C(O)c1ccc2c(c1)nc(Nc1cccc(Cl)c1)c1ccncc12 [Silmitasertib] + CS(=O)(=O)CCNCc1ccc(-c2ccc3ncnc(Nc4ccc(OCc5cccc(F)c5)c(Cl)c4)c3c2)o1 [Lapatinib] (partner 2 µM)
Outline: as §1

[4] = compound: O=C(O)c1ccc2c(c1)nc(Nc1cccc(Cl)c1)c1ccncc12 [Silmitasertib] + CS(=O)(=O)N1CCN(Cc2cc3nc(-c4cccc5[nH]ncc45)nc(N4CCOCC4)c3s2)CC1 [Pictilisib] (partner 1 µM)
Outline: as §1

Cell Line	relative viability ([1]; first compound 0.04 µM)	relative viability ([1]; first compound 0.4 µM)	relative viability ([1]; first compound 1.265 µM)	relative viability ([1]; first compound 4 µM)	relative viability ([2]; first compound 0.04 µM)	relative viability ([2]; first compound 0.4 µM)	relative viability ([2]; first compound 1.265 µM)	relative viability ([2]; first compound 4 µM)	relative viability (Silmitasertib + OSI-027; first compound 0.04 µM)	relative viability (Silmitasertib + OSI-027; first compound 0.4 µM)	relative viability (Silmitasertib + OSI-027; first compound 1.265 µM)	relative viability (Silmitasertib + OSI-027; first compound 4 µM)	relative viability ([3]; first compound 0.04 µM)	relative viability ([3]; first compound 0.4 µM)	relative viability ([3]; first compound 1.265 µM)	relative viability ([3]; first compound 4 µM)	relative viability ([4]; first compound 0.04 µM)	relative viability ([4]; first compound 0.4 µM)	relative viability ([4]; first compound 1.265 µM)	relative viability ([4]; first compound 4 µM)
NCI-H596	1	0.818	1.02	0.751	1.09	0.882	0.902	0.787	0.749	0.471	0.68	0.472	1.06	1.04	0.833	0.977	0.393	0.384	0.36	0.336
LCLC-97TM1	1.13		0.521	0.208	0.504		0.484	0.279	0.545		0.339	0.198	0.999		1.04	0.192	0.19		0.15	0.112
NCI-H1993	1.33	0.857	0.995	0.745	1.07	0.933	0.631	0.749	0.544	0.56	0.614	0.658	0.815	0.753	0.887	0.803	0.818	0.818	0.854	0.916
HARA	1.12	0.812	0.949	0.766	1.16	0.88	0.944	0.984	0.715	0.203	0.432	0.141	0.901	0.696	0.608	0.592	0.603	0.41	0.334	0.257
NCI-H460	1.22	0.967	1.09	1.15	1.26	1.2	1.3	1.04	0.822	0.688	0.64	0.672	1.21	0.997	1.02	0.305	0.424	0.412	0.314	0.3
NCI-H1650	0.375	0.192	0.232	0.195	1.38	1.24	0.695	0.414	0.99	0.511	0.496	0.203	1.4	0.825	0.671	0.23	0.781	0.459	0.348	0.211
EKVX	1.12	0.686	0.928	0.59	0.874	0.648	0.681	0.681	0.812	0.533	0.605	0.662	0.236	0.192	0.157	0.144	0.491	0.356	0.373	0.383
